Experimental data: patent US12011444B2, “N-substituted indole derivatives as PGE2 receptor modulators” (Idorsia Pharmaceuticals Ltd, priority 2015, dated 2024)

Experiments:
EP4 = EP4 (Homo sapiens (Human), UniProt P35408); assay: hEP4 cAMP assay (BT549 breast cancer cells, HTRF cAMP); type: cell-based; settings: antagonistic activity; mean values where measured multiple times
Protocol: Plate is pre-incubated 45 minutes at room temperature. Subsequently, 2.5 microliters of PGE2 (final conc. 6 nM) are transferred into the assay plate. Plate is incubated 30 minutes at room temperature.

EP2 = EP2 (Homo sapiens (Human), UniProt P43116);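 also: antagonism of PGE2-stimulated cAMP accumulation in SF295 human glioblastoma cells with endogenous EP2, cAMP read by HTRF, expressed relative to DMSO control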
Sequence of EP2 (P43116 whole entry): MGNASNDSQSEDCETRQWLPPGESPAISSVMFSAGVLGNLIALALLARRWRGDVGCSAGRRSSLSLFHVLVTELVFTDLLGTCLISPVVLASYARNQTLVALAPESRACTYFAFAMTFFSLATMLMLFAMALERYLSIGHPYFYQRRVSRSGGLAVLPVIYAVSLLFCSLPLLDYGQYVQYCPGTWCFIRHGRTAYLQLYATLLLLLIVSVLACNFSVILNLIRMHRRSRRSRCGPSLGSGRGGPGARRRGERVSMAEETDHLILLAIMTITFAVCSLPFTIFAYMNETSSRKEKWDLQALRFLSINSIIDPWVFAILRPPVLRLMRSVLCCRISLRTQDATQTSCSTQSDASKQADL

Sequence of EP4 (P35408 whole entry): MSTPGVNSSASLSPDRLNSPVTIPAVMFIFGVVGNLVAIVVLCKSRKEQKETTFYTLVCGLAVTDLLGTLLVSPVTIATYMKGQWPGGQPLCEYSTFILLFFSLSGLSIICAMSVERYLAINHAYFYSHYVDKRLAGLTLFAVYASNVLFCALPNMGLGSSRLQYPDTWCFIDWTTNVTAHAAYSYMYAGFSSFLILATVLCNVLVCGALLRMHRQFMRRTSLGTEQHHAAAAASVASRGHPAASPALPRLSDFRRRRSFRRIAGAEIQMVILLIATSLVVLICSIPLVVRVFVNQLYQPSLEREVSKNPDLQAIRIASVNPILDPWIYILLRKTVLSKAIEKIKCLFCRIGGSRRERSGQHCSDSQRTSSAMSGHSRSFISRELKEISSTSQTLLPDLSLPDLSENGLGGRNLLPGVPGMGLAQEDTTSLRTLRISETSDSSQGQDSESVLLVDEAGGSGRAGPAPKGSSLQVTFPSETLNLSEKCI

## Cc1cc2c(Cl)ccc(Cl)c2n1CCNc1cc(-c2ccc(C(=O)O)c(SC3CCC3)c2)ncn1 [compound 453, 2-Cyclobutylsulfanyl-4-{6-[2-(4,7-dichloro-2-methyl-indol-1-yl)-ethylamino]-pyrimidin-4-yl}-benzoic acid]
EP4
  IC50: 0.904 µM
EP2
  IC50: 0.031 µM

## CCOc1cc(-c2cc(NCCn3c(C)cc4c5c(cc(Cl)c43)OCO5)ncn2)ccc1C(=O)O [compound 454, 4-{6-[2-(5-Chloro-7-methyl-[1,3]dioxolo[4,5-e]indol-6-yl)-ethylamino]-pyrimidin-4-yl}-2-ethoxy-benzoic acid]
EP4
  IC50: 0.445 µM
EP2
  IC50: 0.014 µM

## COc1ccc(F)c2c1cc(C)n2CCNc1cc(-c2ccc(-c3nnc(C)o3)c(F)c2)ncn1 [compound 455]
EP4
  IC50: 0.154 µM
EP2
  IC50: 0.074 µM

## Cc1ccc(F)c2c1cc(C)n2CCNc1cc(-c2ccc(-c3n[nH]cc3C(=O)O)cc2)ncn1 [compound 456]
EP4
  IC50: 0.944 µM
EP2
  IC50: 0.233 µM

## COc1ccc(F)c2c1cc(C)n2CCNc1cc(-c2ccc(Cn3cccn3)c(F)c2)ncn1 [compound 457]
EP4
  IC50: 0.48 µM
EP2
  IC50: 0.888 µM

## COc1ccc(F)c2c1cc(C)n2CCNc1cc(-c2ccc(-c3nc(N)sc3C)cc2)ncn1 [compound 458, {6-[4-(2-Amino-5-methyl-thiazol-4-yl)-phenyl]-pyrimidin-4-yl}-[2-(7-fluoro-4-methoxy-2-methyl-indol-1-yl)-ethyl]-amine]
EP4
  IC50: 0.074 µM
EP2
  IC50: 0.025 µM

## COc1ccc(F)c2c1cc(C)n2CCNc1cc(-c2ccc(-n3nc(C)cc3C)cc2)ncn1 [compound 459]
EP4
  IC50: 0.739 µM
EP2
  IC50: 0.062 µM

## CCNc1cc(-c2cc(NCCn3c(C)cc4c5c(cc(Cl)c43)OCO5)ncn2)ccc1C(=O)O [compound 460, 4-{6-[2-(5-Chloro-7-methyl-[1,3]dioxolo[4,5-e]indol-6-yl)-ethylamino]-pyrimidin-4-yl}-2-ethylamino-benzoic acid]
EP4
  IC50: 0.146 µM
EP2
  IC50: 0.004 µM

## COc1cccc2c1cc(C)n2CCNc1cc(-c2ccc3c(c2)CN(CC(C)C)C3=O)ncn1 [compound 462]
EP4
  IC50: 0.842 µM
EP2
  IC50: 0.061 µM

## CCOc1cc(-c2cc(NCCn3c(C)cc4c(OC)cccc43)ncn2)ccc1CNC1CC1 [compound 463]
EP4
  IC50: 0.741 µM
EP2
  IC50: 0.252 µM

## Cc1ccc(F)c2c1cc(C)n2CCNc1cc(-c2ccc(C(=O)O)c(N3CCCC3)c2)ncn1 [compound 464, 4-{6-[2-(7-Fluoro-2,4-dimethyl-indol-1-yl)-ethylamino]-pyrimidin-4-yl}-2-pyrrolidin-1-yl-benzoic acid]
EP4
  IC50: 0.459 µM
EP2
  IC50: 0.015 µM

## CCCN1Cc2cc(-c3cc(NCCn4c(C)cc5c(OC)ccc(F)c54)ncn3)ccc2C1=O [compound 466, 5-{6-[2-(7-Fluoro-4-methoxy-2-methyl-indol-1-yl)-ethylamino]-pyrimidin-4-yl}-2-propyl-2,3-dihydro-isoindol-1-one]
EP4
  IC50: 0.229 µM
EP2
  IC50: 0.033 µM

## Cc1ccc(F)c2c1cc(C)n2CCNc1cc(-c2ccc3c(c2)CN(CC(C)C)C3=O)ncn1 [compound 467]
EP4
  IC50: 0.994 µM
EP2
  IC50: 0.387 µM

## COc1ccc(F)c2c1cc(C)n2CCNc1cc(-c2ccc(N3CCCS3(=O)=O)cc2)ncn1 [compound 469]
EP4
  IC50: 0.667 µM
EP2
  IC50: 0.068 µM

## COc1ccc(F)c2c1cc(C)n2CCNc1cc(-c2ccc(C(=O)O)c3c2ccn3C)ncn1 [compound 470]
EP4
  IC50: 0.735 µM
EP2
  IC50: 0.063 µM

## CNc1nnc(-c2ccc(-c3cc(NCCn4c(C)cc5c(OC)ccc(F)c54)ncn3)cc2)s1 [compound 471, [2-(7-Fluoro-4-methoxy-2-methyl-indol-1-yl)-ethyl]-{6-[4-(5-methylamino-[1,3,4]thiadiazol-2-yl)-phenyl]-pyrimidin-4-yl}-amine]
EP4
  IC50: 0.029 µM
EP2
  IC50: 0.002 µM

## COc1ccc(F)c2c1cc(C)n2CCNc1cc(-c2ccc(C(=O)O)c(OC3CCC3)c2)ncn1 [compound 472, 2-Cyclobutoxy-4-{6-[2-(7-fluoro-4-methoxy-2-methyl-indol-1-yl)-ethylamino]-pyrimidin-4-yl}-benzoic acid]
EP4
  IC50: 0.066 µM
EP2
  IC50: 0.005 µM

## CCOc1cc(-c2cc(NCCn3c(C)cc4c(OC)ccc(F)c43)ncn2)ccc1CNC1CC1 [compound 473]
EP4
  IC50: 0.646 µM
EP2
  IC50: 0.538 µM

## COc1ccc(F)c2c1cc(C)n2CCNc1cc(-c2ccc3c(c2)CN(CC(C)C)C3=O)ncn1 [compound 475]
EP4
  IC50: 0.259 µM
EP2
  IC50: 0.054 µM

## COc1ccc(F)c2c1cc(C)n2CCNc1cc(-c2ccc(-c3csc(C(=O)O)n3)cc2)ncn1 [compound 476, 4-(4-{6-[2-(7-Fluoro-4-methoxy-2-methyl-indol-1-yl)-ethylamino]-pyrimidin-4-yl}-phenyl)-thiazole-2-carboxylic acid]
EP4
  IC50: 0.048 µM
EP2
  IC50: 0.018 µM

## Cc1noc(-c2ccc(-c3cc(NCCn4c(C)cc5c(C)ccc(F)c54)ncn3)cc2)c1C(=O)O [compound 477]
EP4
  IC50: 0.574 µM
EP2
  IC50: 0.122 µM

## COc1ccc(F)c2c1cc(C)n2CCNc1cc(-c2ccc(C(=O)O)c(N3CCCC3)c2)ncn1 [compound 478, 4-{6-[2-(7-Fluoro-4-methoxy-2-methyl-indol-1-yl)-ethylamino]-pyrimidin-4-yl}-2-pyrrolidin-1-yl-benzoic acid]
EP4
  IC50: 0.665 µM
EP2
  IC50: 0.011 µM

## Cc1ccc(F)c2c1cc(C)n2CCNc1cc(-c2ccc(C(=O)O)c(NS(C)(=O)=O)c2)ncn1 [compound 479]
EP4
  IC50: 0.233 µM
EP2
  IC50: 0.127 µM

## CCOc1cc(-c2cc(NCCn3c(C#N)cc4c(OC)cc(F)cc43)ncn2)ccc1C(=O)O [compound 480]
EP4
  IC50: 0.075 µM
EP2
  IC50: 0.026 µM

## Cc1cc(F)cc2c1cc(C#N)n2CCNc1cc(-c2ccc(C(=O)O)c(CC(C)C)c2)ncn1 [compound 481]
EP4
  IC50: 0.112 µM
EP2
  IC50: 0.061 µM

## Cc1cc2c(F)ccc(C#N)c2n1CCNc1cc(-c2ccc(C(=O)O)c(CC(C)C)c2)ncn1 [compound 482]
EP4
  IC50: 0.986 µM
EP2
  IC50: 0.686 µM

## CCNc1cc(-c2cc(NCCn3c(C)cc4c(OC)ccc(F)c43)ncn2)cc(F)c1C(=O)O [compound 483]
EP4
  IC50: 0.098 µM
EP2
  IC50: 0.004 µM

## CCCCOc1cc(-c2cc(NCCn3c(C)cc4c(OC)cccc43)ncn2)ccc1C(=O)O [compound 484]
EP4
  IC50: 0.117 µM
EP2
  IC50: 0.001 µM

## COc1cccc2c1cc(C)n2CCNc1cc(-c2ccc(C(=O)O)c(OCC(C)C)c2)ncn1 [compound 485]
EP4
  IC50: 0.245 µM
EP2
  IC50: 0.003 µM

## CCOc1cc(-c2cc(NCCn3c(C)cc4c(OC)c(F)cc(Cl)c43)ncn2)ccc1C(=O)O [compound 486]
EP4
  IC50: 0.325 µM
EP2
  IC50: 0.091 µM

## CCOc1cc(-c2cc(NCCn3c(C)cc4c(OC)cc(F)c(F)c43)ncn2)ccc1C(=O)O [compound 487]
EP4
  IC50: 0.076 µM
EP2
  IC50: 0.049 µM

## CCOc1cc(-c2cc(NCCn3c(C)cc4c(OC)ccc(Cl)c43)ncn2)cc(Cl)c1C(=O)O [compound 488]
EP4
  IC50: 0.219 µM
EP2
  IC50: 0.07 µM

## CCOc1cc(-c2cc(NCCn3c(C)cc4c(OC)ccc(F)c43)ncn2)cc(Cl)c1C(=O)O [compound 489]
EP4
  IC50: 0.103 µM
EP2
  IC50: 0.025 µM

## CCOc1cc(-c2cc(NCCn3c(C)cc4c(OC)ccc(F)c43)ncn2)cc(F)c1C(=O)O [compound 490]
EP4
  IC50: 0.165 µM
EP2
  IC50: 0.017 µM

## CCOc1cc(-c2cc(NCCn3c(C)cc4c(OC)c(Cl)cc(F)c43)ncn2)ccc1C(=O)O [compound 491]
EP4
  IC50: 0.707 µM
EP2
  IC50: 0.765 µM
